Data from PubChem BioAssay AID504532 (Sanford-Burnham Center for Chemical Genomics, 2011).
Active and inactive are the calls of the source.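 Rule for the calls: active = mean EC50 below 10 µM; inactive = the rest.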

Each molecule was assayed against Type-1 angiotensin II receptor (Homo sapiens) (UniProt P30556) (assay: AT1 receptor agonist selectivity testing, SAR follow-up, selectivity assay for APJ receptor agonist project, cell-based, CHO-K1 AGTR1, beta-arrestin, luminescence, set 5 (AID 504532)). Settings: CHO-K1 AGTR1 beta-arrestin PathHunter, 90 min.
Sequence of Type-1 angiotensin II receptor (Homo sapiens) (P30556 whole entry, looked up): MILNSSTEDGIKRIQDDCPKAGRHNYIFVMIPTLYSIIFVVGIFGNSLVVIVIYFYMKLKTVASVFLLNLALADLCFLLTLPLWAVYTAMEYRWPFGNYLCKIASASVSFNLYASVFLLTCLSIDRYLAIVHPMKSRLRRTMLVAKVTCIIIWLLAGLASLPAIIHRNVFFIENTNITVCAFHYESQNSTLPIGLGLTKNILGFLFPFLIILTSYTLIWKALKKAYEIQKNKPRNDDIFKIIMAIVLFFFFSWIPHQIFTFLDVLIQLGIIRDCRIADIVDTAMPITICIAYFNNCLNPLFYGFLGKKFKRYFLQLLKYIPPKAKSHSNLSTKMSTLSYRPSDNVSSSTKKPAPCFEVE

EC50, inactive:
CC1=CC(=O)C(C(C)(C)C)=C/C1=N\OS(=O)(=O)c1cccc(Cl)c1 > 79 µM
N#Cc1ccc(S(=O)(=O)ON=C2C=CC(=O)C(c3ccccc3)=C2)cc1 > 79 µM
Cc1cc(O)c(C(C)(C)C)cc1N=O > 79 µM
CC1=CC(=O)C(C2CCCCC2)=C/C1=N\OS(=O)(=O)c1cn(C)cn1 > 79 µM
CC1=CC(=O)C(C(C)(C)C)=C/C1=N\OS(=O)(=O)c1c(Cl)cccc1Cl > 79 µM
CC1=CC(=O)C(C(C)(C)C)=C/C1=N\OS(=O)(=O)c1cn(C)cn1 > 79 µM
CC1=CC(=O)C(C(C)C)=C/C1=N/OS(=O)(=O)c1cccc(C)c1 > 79 µM
CC1=CC(=O)C(C2CCCCC2)=C/C1=N\OS(=O)(=O)c1cccc(Cl)c1 > 79 µM
CC1=CC(=O)C(C2CCCCC2)=C/C1=N/OS(=O)(=O)c1cccc(C)c1 > 79 µM
CC1=CC(=O)C(C2CCCCC2)=C/C1=N/OS(=O)(=O)c1cccc(C#N)c1 > 79 µM
CC1=CC(=O)C(C(C)(C)C)=C/C1=N/OS(=O)(=O)c1cccc(C)c1 > 79 µM
COc1cccc(S(=O)(=O)O/N=C2\C=C(C(C)(C)C)C(=O)C=C2C)c1 > 79 µM
CC1=CC(=O)C(C2CCCCC2)=C/C1=N/OS(=O)(=O)c1cccc(Br)c1 > 79 µM
CC1=CC(=O)C(C2CCCCC2)=C/C1=N\OS(=O)(=O)c1c(Cl)cccc1Cl > 79 µM
CC1=CC(=O)C(C(C)C)=C/C1=N\OS(=O)(=O)c1ccccc1Cl > 79 µM
CC1=CC(=O)C(C(C)(C)C)=C/C1=N/OS(=O)(=O)c1cccc(C#N)c1 > 79 µM
CC1=CC(=O)C(C2CCCCC2)=C/C1=N\OS(=O)(=O)c1ccccc1Cl > 79 µM
CC(C)C1=CC(=NOS(=O)(=O)c2ccccc2)C=CC1=O > 79 µM
COc1cccc(S(=O)(=O)O/N=C2\C=C(C(C)C)C(=O)C=C2C)c1 > 79 µM
CC1=CC(=O)C(C(C)C)=C/C1=N\OS(=O)(=O)C1CCCCC1 > 79 µM
CC1=CC(=O)C(C(C)(C)C)=C/C1=N\OS(=O)(=O)c1ccccc1Cl > 79 µM
Cc1cc(N=O)c(C(C)C)cc1O > 79 µM
CC1=CC(=O)C(C(C)C)=C/C1=N/OS(=O)(=O)c1cccc(C#N)c1 > 79 µM
CC1=CC(=O)C(C(C)(C)C)=C/C1=N/OS(=O)(=O)c1cccc(Br)c1 > 79 µM
CC1=CC(=O)C(C(C)C)=C/C1=N/OS(=O)(=O)c1cccc(Br)c1 > 79 µM
CC1=CC(=O)C(C(C)C)=C/C1=N\OS(=O)(=O)c1c(Cl)cccc1Cl > 79 µM
COc1cccc(S(=O)(=O)O/N=C2\C=C(C3CCCCC3)C(=O)C=C2C)c1 > 79 µM
O=C1C=CC(=NOS(=O)(=O)c2ccccc2)C=C1c1ccccc1 > 79 µM
CC1=CC(=O)C(C(C)(C)C)=C/C1=N\OS(=O)(=O)C1CCCCC1 > 79 µM
CC1=CC(=O)C(C(C)C)=C/C1=N\OS(=O)(=O)c1cccc(Cl)c1 > 79 µM
CC1=CC(=O)C(C(C)C)=C/C1=N\OS(=O)(=O)c1cn(C)cn1 > 79 µM
